Results reported in PMC9228282, “Catalytic Properties of Caseinolytic Protease Subunit of Plasmodium knowlesi and Its Inhibition by a Member of δ-Lactone, Hyptolide” (Molecules, 2022).
Read-outs that look alike come from different tables or passages of the source.

Experiments:
[1] = biological target: T1, caseinolytic protease proteolytic subunit of Plasmodium knowlesi (Pk-ClpP) (Plasmodium knowlesi, UniProt A0A384LAC0)
T1 construct: gene PKNH_0835300
T1 sequence (A0A384LAC0 141-372 limits assumed): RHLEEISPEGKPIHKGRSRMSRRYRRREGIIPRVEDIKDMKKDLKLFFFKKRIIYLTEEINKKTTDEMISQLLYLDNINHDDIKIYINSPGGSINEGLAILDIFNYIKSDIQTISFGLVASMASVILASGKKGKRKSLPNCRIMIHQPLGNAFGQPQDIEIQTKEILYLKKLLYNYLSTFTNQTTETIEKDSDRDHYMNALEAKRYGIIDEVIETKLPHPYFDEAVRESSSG

[2] = biological target: T1, caseinolytic protease proteolytic subunit of Plasmodium knowlesi (Pk-ClpP); assay: chromogenic protease assay with N-CBZ-Glycine p-nitrophenyl ester on purified Pk-ClpP; assay type: biochemical
[3] = biological target: caseinolytic protease proteolytic subunit (ClpP) of Plasmodium knowlesi (Plasmodium knowlesi); assay: SEC; purified Pk-ClpP on HiLoad 16/60 Superdex 200pg, 50 mM Tris-HCl pH 8.0, 50 mM NaCl, 0.5 mL/min; size by comparison with protein markers

## O=C(CNC(=O)OCc1ccccc1)Oc1ccc([N+](=O)[O-])cc1 [N-CBZ-Glycine p-nitrophenyl ester]
[1]
  Km: 3.07 ± 0.18 µM

## CC(=O)O[C@H](/C=C\[C@H]1CC=CC(=O)O1)C[C@@H](OC(C)=O)[C@H](C)OC(C)=O [Hyp, hyptolide]
[2]; read-out: IC50
  IC50: 17.4 ± 1.44 nM

## caseinolytic protease proteolytic subunit (ClpP) of Plasmodium knowlesi (enzyme)
[3]
  stoichiometry N: 7

## O=S(=O)(F)Cc1ccccc1 [PMSF, phenylmethylsulfonyl fluoride, reference compound]
[2]
  IC50: 6.9 ± 0.18 nM
